From US12280046B2, “Melanocortin subtype-2 receptor (MC2R) antagonist for the treatment of disease” (Crinetics Pharmaceuticals, Inc., priority 2021, dated 2025) come the findings set out here.

Bounds are passed on as bounds.

A word on the IC50: it is the concentration at which inhibition is half-maximal. For orientation: Ki means the equilibrium dissociation constant of an inhibitor or competing ligand from its target.

Data set [1] addresses T1, MC3R (Homo sapiens, UniProt P41968).
T1 construct: purchased
Kind of data set: Commercially available MC3R membrane binding assay. To be noted: greater than highest concentration tested. How it is done:
The selectivity over other human MCR subtypes was evaluated using commercially available MC1R, MC3R, MC4R, and MCSR membrane binding assays. The half maximal inhibitory concentration in the binding assays (IC50) were determined to be greater than the highest concentration tested, or >10,000 nM, >1000 nM, >10,000 nM and >1000 nM for MC1R, MC3R, MC4R and MCSR, respectively. Compound 1 is >2900-fold selective for MC2R versus the other human MCRs.

In data set [2] the test system is 87 targets including G-protein coupled receptors, nuclear receptors, other cell surface receptors, ion channels, enzymes, and transporters. Kind of data set: Eurofins Panlabs SafetyScreen off-target selectivity panel. The settings on record: single concentration 10 μM. The protocol:
(§1) Compound 1 was tested at Eurofins Panlabs Discovery Services Taiwan, Ltd. for evaluation in their SafetyScreen™ panel of assays. This included selectivity assays at 87 targets including G-protein coupled receptors, nuclear receptors, other cell surface receptors, ion channels, enzymes, and transporters.

Data set [3] can be described thus: Single oral dose ACTH challenge test in rats. In kind it is in vivo, rat. To be noted: rat, in vivo, male rats, at minimum effective dose 3 mg/kg oral. The protocol:
(§2) The pharmacodynamic (PD) effects of Compound 1 were examined in rat by evaluating suppression of the corticosterone (cortisol in humans) response induced by administration of ACTH.
(§3) The ability of a single oral dose of Compound 1 to suppress corticosterone over 2 hours in response to an ACTH challenge test was assessed in male and female rats. Acute, IV administration of 1 μg/kg ACTH(1-24) induced a robust rise in plasma corticosterone levels compared to baseline in male and female rats.

Data set [4] concerns ACTH-stimulated corticosterone secretion. Kind of data set: Single oral dose ACTH challenge test in rats. Type of data set: in vivo, rat. To be noted: for suppression of corticosterone: 1 μg/kg IV ACTH(1-24), vs vehicle. The protocol:
as §2, §3

In data set [5] the test system is serotonin 5-hydroxytryptamine 1B receptor (5-HT1B). Kind of data set: SafetyScreen panel: 5-HT1B. The settings on record: 10 μM. Type of data set: binding. The protocol:
as §1

The subject of data set [6] is corticosterone and adrenal gland hypertrophy. Kind of data set: Continuous pump-administration of ACTH(1-24) in male rats, 7 days of daily oral dosing. Type of data set: in vivo, rat. The protocol:
Exogenous ACTH(1-24) (100 μg/kg/day) was administered to male rats via subcutaneously implanted osmotic pumps. The ability of repeated daily oral administration of Compound 1 to suppress corticosterone over 7 days was evaluated.

In data set [7] the target is T2, human MC2R (Homo sapiens, UniProt Q01718).
T2 construct: host or cells: CellSensor CRE-bla CHO-K1
T2 sequence (Q01718 whole entry): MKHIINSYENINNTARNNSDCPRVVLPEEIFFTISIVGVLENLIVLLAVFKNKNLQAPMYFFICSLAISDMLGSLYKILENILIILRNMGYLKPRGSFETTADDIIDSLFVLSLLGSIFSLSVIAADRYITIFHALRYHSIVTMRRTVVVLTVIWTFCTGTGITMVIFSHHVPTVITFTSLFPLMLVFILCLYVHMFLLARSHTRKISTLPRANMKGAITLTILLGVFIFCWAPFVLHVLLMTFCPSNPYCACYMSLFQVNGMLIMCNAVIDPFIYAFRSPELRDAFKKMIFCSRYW
T2 sequence (Q8TCY5 whole entry partner): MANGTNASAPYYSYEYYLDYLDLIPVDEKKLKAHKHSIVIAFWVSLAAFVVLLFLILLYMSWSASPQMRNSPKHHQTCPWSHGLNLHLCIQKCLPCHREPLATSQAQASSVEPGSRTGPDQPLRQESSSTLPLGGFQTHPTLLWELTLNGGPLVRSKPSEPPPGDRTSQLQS
Kind of data set: Inhibition of ACTH binding: radioactive competition binding assay, hMC2R membranes. How it is done: Crude membrane fractions are prepared from CellSensor CRE-bla CHO-K1 cells stably expressing functional hMC2 receptor (ThermoFisher #K1483). The cells are cultured to 85-100% confluency in growth media [GlutaMax DMEM (Gibco #10569-010) supplemented with 10% dialyzed fetal bovine serum (Gemini Bio-Products #100-108), 0.1 mM non-essential amino acids (Gibco #11140-050), 100 U/mL penicillin; 100 μg/mL streptomycin; 2 mM L-glutamine (Gemini Bio-Products #400-110), 5 μg/mL blasticidin (GoldBio #B-800-100), 100 μg/mL zeocin (Invitogen #R25005) and 600 μg/mL hygromycin B (GoldBio #31282-04-9)]. Cells were collected and washed in Dulbecco's phosphate buffered saline (Corning #21-031-CV). […]
The inhibition of binding to the human MC2R receptor was measured in a radioactive competition binding assay using the radiolabeled [^125I]-TYR^23]-ACTH (1-39) ligand (PerkinElmer #NEX083, custom synthesis) as the probe ligand for the receptor. […] The radioactive signal was detected using a MicroBetaTriLux 1450 LSC (PerkinElmer). […]
The selectivity over other human MCR subtypes was evaluated using commercially available MC1R, MC3R, MC4R, and MCSR membrane binding assays. […]

T1 sequence (P41968 whole entry): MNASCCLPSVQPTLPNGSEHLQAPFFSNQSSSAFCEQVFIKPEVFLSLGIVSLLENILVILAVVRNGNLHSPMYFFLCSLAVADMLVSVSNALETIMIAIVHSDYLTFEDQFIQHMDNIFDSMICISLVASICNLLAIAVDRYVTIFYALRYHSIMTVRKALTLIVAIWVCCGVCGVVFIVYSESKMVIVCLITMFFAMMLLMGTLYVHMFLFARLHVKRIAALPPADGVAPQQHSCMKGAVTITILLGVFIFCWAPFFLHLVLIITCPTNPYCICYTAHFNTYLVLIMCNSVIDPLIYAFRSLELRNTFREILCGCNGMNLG

For `CCOc1ccccc1-c1ccc(N2CCN(C(=O)C3(C(F)(F)F)CCC3)C[C@H]2CC)c(C(=O)N[C@@H]2CN3CCC2CC3)n1` [Compound 1, 6-(2-ethoxyphenyl)-3-((R)-2-ethyl-4-(1-(trifluoromethyl)cyclobutane-1-carbonyl)piperazin-1-yl)-N—((S)-quinuclidin-3-yl)picolinamide], the IC50 in data set [1] was over 1 µM. The “activity across the panel” value in data set [2] was “little activity across the panel”. Further, the Cmax in data set [3] is 149 ng/mL. Moreover, the AUC(0-t) in data set [3] (read-out: AUC up to the last measurable concentration (AUC0-t)) worked out at 1400 ng·h/mL. The suppression of corticosterone in data set [4] (female rats, 1 mg/kg oral) is reported as 51%; in data set [4] (female rats, 3 mg/kg oral), 71%; in data set [4] (female rats, 10 mg/kg oral), 88%; in data set [4] (male rats, 3 mg/kg oral) it was 62%; in data set [4] (male rats, 10 mg/kg oral), 78%. Further, the “dose with statistically significant suppression of corticosterone” value in data set [4] (female rats, oral) is given as at least 1 mg/kg; in data set [4] (male rats, oral) it was at least 3 mg/kg. Besides, the ACTH-stimulated corticosterone secretion result in data set [4] (male and female rats, oral) was “dose-dependently suppressed”. The same molecule gave a minimum effective dose in data set [4] (male rats, oral, 1 μg/kg ACTH-stimulated acute assay) of 3 mg/kg. In addition, the inhibition/activity in data set [5] is on record as over 70%. In addition, the “adrenal gland hypertrophy (adrenal gland weight and adrenal cortical area)” value in data set [6] (10 and 30 mg/kg/day vs vehicle) is listed as “ameliorated adrenal gland hypertrophy”. In data set [6] (≥10 mg/kg/day, 1 hour post-dose on Day 1 and Day 7), the corticosterone entry was “dose-dependently suppressed”. For the same molecule, the Ki in data set [7] (hMC2R membranes, [125I]-Tyr23-ACTH(1-39) probe, read-out: equilibrium inhibitory constant (Ki) in a binding assay) is under 0.01 µM. Besides, the “selectivity for MC2R versus the other human MCRs” value in data set [7] (over MC1R, MC3R, MC4R, MCSR) was over 2900 fold.
